pIC50: −log10 of the molar value.
Key:
enkephalinase = biological target: T1, enkephalinase (Mus musculus, UniProt Q61391); assay: Enkephalinase inhibition in vitro on striatum membranes (Table 1 (a)); format: biochemical
T1 construct: Activity measured on striatum membranes according to Llorens et al., J; from tissue; host or cells: striatum membranes
T1 sequence (Q61391 1-750): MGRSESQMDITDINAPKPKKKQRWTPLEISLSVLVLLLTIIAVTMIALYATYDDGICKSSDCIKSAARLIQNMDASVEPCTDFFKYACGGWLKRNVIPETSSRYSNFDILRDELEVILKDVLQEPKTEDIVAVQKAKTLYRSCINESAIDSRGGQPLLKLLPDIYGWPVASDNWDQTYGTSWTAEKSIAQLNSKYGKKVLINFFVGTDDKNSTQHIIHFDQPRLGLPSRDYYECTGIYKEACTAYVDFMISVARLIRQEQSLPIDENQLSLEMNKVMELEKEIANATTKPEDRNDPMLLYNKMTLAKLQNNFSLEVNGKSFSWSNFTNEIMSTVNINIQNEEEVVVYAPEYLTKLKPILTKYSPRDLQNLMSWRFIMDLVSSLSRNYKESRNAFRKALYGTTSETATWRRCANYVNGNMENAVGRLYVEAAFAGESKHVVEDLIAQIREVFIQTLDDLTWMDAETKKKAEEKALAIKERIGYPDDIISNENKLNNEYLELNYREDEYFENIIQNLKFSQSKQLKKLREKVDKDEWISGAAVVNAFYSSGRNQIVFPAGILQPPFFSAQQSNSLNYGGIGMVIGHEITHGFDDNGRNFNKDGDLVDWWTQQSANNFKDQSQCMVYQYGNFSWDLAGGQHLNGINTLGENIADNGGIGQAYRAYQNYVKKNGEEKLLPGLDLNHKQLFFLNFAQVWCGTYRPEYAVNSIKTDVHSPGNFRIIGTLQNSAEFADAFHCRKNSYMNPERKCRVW
Source text: (§1) Dosage of `enkephalinase` activity and angiotensin convertase (ACE) activity with determination of the effect of inhibitors both in vitro and on mouses in vivo: inhibition of the same enzymes and protection of natriuretic auricular factor.
(§2) ENKEPHALINASE AND ACE INHIBITING ACTIVITIES IN IN VITRO AND IN VIVO STRIATUM
(a)Activity measured on striatum membranes according to Llorens et al., J

[1] = biological target: T2, ACE (angiotensin convertase) (Mus musculus, UniProt P09470); assay: ACE inhibition in vitro on mouse striatum membranes (Table 1 (c)); format: biochemical
T2 construct: Activities measured on mouse striatum membranes in vitro or 30; from tissue; host or cells: mouse striatum (membranes)
T2 sequence (P09470 35-1312): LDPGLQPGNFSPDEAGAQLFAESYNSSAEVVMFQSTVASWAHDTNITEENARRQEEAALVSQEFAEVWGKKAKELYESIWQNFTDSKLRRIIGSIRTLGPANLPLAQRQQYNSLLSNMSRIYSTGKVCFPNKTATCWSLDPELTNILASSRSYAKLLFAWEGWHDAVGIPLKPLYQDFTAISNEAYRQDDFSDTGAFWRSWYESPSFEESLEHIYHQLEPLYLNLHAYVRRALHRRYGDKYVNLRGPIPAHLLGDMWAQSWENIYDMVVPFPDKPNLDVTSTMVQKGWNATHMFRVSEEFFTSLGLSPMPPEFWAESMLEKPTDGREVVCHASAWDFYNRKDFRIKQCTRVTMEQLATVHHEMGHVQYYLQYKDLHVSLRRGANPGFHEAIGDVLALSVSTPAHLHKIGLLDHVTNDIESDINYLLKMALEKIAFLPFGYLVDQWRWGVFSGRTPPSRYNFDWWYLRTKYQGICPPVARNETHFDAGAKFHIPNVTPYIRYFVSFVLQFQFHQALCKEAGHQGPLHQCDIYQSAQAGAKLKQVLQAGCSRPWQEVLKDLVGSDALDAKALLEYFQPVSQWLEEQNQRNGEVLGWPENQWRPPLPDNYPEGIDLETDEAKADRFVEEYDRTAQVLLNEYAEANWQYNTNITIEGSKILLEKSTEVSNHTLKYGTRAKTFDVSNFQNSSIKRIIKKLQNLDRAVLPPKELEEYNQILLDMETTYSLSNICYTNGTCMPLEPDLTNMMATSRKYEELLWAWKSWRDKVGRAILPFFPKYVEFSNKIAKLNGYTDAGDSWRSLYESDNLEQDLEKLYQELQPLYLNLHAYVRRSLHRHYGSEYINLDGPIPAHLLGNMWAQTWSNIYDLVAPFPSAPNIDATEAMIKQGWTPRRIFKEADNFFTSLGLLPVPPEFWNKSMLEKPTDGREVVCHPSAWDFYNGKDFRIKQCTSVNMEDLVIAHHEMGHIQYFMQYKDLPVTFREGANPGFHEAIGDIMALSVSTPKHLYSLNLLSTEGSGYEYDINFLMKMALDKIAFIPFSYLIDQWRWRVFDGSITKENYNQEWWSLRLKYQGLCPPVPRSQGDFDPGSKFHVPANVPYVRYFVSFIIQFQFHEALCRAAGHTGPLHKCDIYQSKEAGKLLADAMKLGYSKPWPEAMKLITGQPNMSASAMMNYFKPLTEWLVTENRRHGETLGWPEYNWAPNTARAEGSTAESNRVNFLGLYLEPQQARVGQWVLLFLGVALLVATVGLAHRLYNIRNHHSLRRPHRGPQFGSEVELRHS
Source text: as §1, §2
(§3) (c) and (d)Activities measured on mouse striatum membranes in vitro or 30
(§4) mn after i.v. administration according to Yang and Neff, J. Neurochem, […]

[2] = biological target: T2, ACE (angiotensin convertase); assay: ACE inhibition in vivo, mouse striatum (Table 1 (d))
Source text: as §1, §2, §3, §4

[3] = tested on: natriuretic auricular factor (ANF) in the kidney; assay: Protection of natriuretic auricular factor (ANF) in the kidney in vivo (Table 2 (b)); parameters: species or system mouse; conditions: for Increase of ANF (%): renal 125I ANF 2 min after i.v. administration of 10^6 cpm, compound 0.3 mg/kg orally 90 min before, 0.3 mg/kg
Method: as §1
ENKEPHALINASE INHIBITING ACTIVITIES AND PROTECTION OF NATRIURETIC AURICULAR FACTOR (ANF) IN THE KIDNEY IN VIVO
(b) Increase in the renal level of ^125 I ANF, as measured 2 min afte
i.v. administration of 10^6 cpm to mouses having been given compounds
1 or 2, 90 min before (0.3 mg/kg, orally).
Compound 2 (0.3 mg/kg, p.o.) induces in the same test an increase of renal ^125 I ANF of 75±7% after 30 min and […] after 180 min.

dogs = assay: Colic motive activity (motive index) after standard meal; format: in vivo, dog
Source text: Motive index (as evaluated with a restraint gauge).
Influence of previous intravenous (i.v.) or oral (p.o.) administration of
compound or the variations of the colic motive index after standard meal

cats = assay: Inhibition of stimulated gastric acid secretion; format: in vivo, cat; conditions: 0.5, 1.5 and 5 mg/kg i.v.; p<0.05

Structure (SMILES)	pIC50 (enkephalinase)	pIC50 [1]	ACE-inhibiting effect ([2]; mouse, in vivo)	ED50 ([2]; mouse, iv, 0.5 h, mouse striatum, 30 mn after i.v. administration, read-out: ACE In vivo(d) (DE50, mg/kg)) [mg/kg]	Increase of ANF (%) [3]	Motive index, After meal (0/+2 h) (dogs; 1 mg/kg i.v.)	Motive index, After meal (+2/10 h) (dogs; 1 mg/kg i.v.)	Motive index, Before meal (-2/0) (dogs; 1 mg/kg i.v.)	Motive index, After meal (0/+2 h) (dogs; 10 mg/kg p.o.)	Motive index, After meal (+2/10 h) (dogs; 10 mg/kg p.o.)	Motive index, Before meal (-2/0) (dogs; 10 mg/kg p.o.)	colic motricity as an answer to the intake of food (dogs; dogs, postprandial periods)	stimulation of gastric acid secretion induced by Pentagastrin, 2-deoxyglucose and histamin (cats)	ACE In vivo(d) (DE50, mg/kg) ([2]; mouse striatum, 30 mn after i.v. administration, 30 min) [mg/kg]	increase of renal 125I ANF ([3]; 0.3 mg/kg p.o., after 30 min) [%]	Motive index, After meal (0/+2 h) (dogs; 5 mg/kg p.o.)	Motive index, After meal (+2/10 h) (dogs; 5 mg/kg p.o.)	Motive index, Before meal (-2/0) (dogs; 5 mg/kg p.o.)
CC(=O)SCC(Cc1ccccc1)C(=O)NCC(=O)OCc1ccccc1 (single isomer, unassigned) [Compound (1)]	8.70	5.30	lack of ACE-inhibiting effect	> 20	inactive	15.2 ± 2.4	18.3 ± 3.1	5.9 ± 0.7	17.4 ± 2.7	21.5 ± 4.6	6.4 ± 0.8	potentiates an increase in colic motricity	significatively decreased	–	–	–	–	–
CC(=O)SCC(Cc1ccccc1)C(=O)NCC(=O)OCc1ccccc1 (single isomer, unassigned) [Compound (2)]	8.52	7.00	–	–	33 ± 3%	–	–	–	–	–	–	–	significatively decreased	10	75±7	16.3 ± 2.5	20.1 ± 3.7	6.2 ± 0.9

Source: patent US5136076A, “Process for the preparation of amino acid-derived enatiomeric compounds” (Societe Civile Bioprojet, priority 1987, dated 1992)
